# Test results from US5696151A, “Compounds useful for the inhibition of the replication of HIV-1 and HIV-1 mutants” (priority 1995, dated 1997).
# Experiments:
# Type in all cases: cell-based
# HIV-1/106-Ala = assay: Inhibition of HIV-1 induced syncytium formation in CEM cells, RT mutant 106-Ala; settings: Table 2B, day 4, averages of 2 to 3 independent experiments; for EC50: Human immunodeficiency virus 1, CCRF-CEM, 96 h, read-out: Antiviral Activity of Comparative Compounds EC50, 106-Ala
# Excerpt: (§1) CEM cells were obtained from the American Tissue Cell Culture Collection (Rockville, Md.). HIV-1(IIIB) was originally obtained from the culture supernatant of persistently HIV-1-infected H9 cells and was provided by R. C. Gallo and M. Popovic (National Cancer Institute, National Institutes of Health, Bethesda, Md.). […] 67: 5353-5359 (1993); HIV-1/Lys-138 ("Lys-138") was selected for resistance against TSAO-m^3T as described in Balzarini et al, Virology 192: 246-253 (1993) and Balzarini et al, Proc. Nat. Acad. Sci. USA 90: 6952-6956 (1993); HIV-1/181-Cys ("181-Cys") was selected for resistance against pyridinone L-697,661 as described in Balzarini et al, Virology 192: 246-253 (1993); and HIV-1/188-His ("188-His") was selected for resistance against HEPT as described in Balzarini et al, Mol. Pharmocol. 44: 694-701 (1993). 188-His was then further converted to HIV-1/188-Leu "188-Leu") upon further passage in cell culture in the absence of the HEPT.
# (§2) CEM cells were suspended at ≈300,000 cells per ml of culture medium and infected with approximately 100 CCID50 (CCID50 being the 50% cell culture infective dose) of HIV-1(IIIB) or one of the HIV-1 RT mutant strains described above. Then 100 μl of the infected cell suspensions was added to 200 μl microtiter plate wells containing 100 μl of appropriate serial (5-fold) dilutions of the test compounds. The inhibitory effect of the test compounds on HIV-1 induced syncytium formation in CEM cells was examined microscopically on day 4 post infection.
# HIV-1/103-Asn = assay: Inhibition of HIV-1 induced syncytium formation in CEM cells, RT mutant 103-Asn; settings: Human immunodeficiency virus 1, CCRF-CEM, 96 h, Table 2B, day 4, averages of 2 to 3 independent experiments, read-out: Antiviral Activity of Comparative Compounds EC50, 103-Asn
# Excerpt: as §1, §2
# HIV-1/188-Leu = assay: Inhibition of HIV-1 induced syncytium formation in CEM cells, RT mutant 188-Leu; settings: Human immunodeficiency virus 1, CCRF-CEM, 96 h, Table 2B, day 4, averages of 2 to 3 independent experiments, read-out: Antiviral Activity of Comparative Compounds EC50, 188-Leu
# Excerpt: as §1, §2
# HIV-1/100-Ile = assay: Inhibition of HIV-1 induced syncytium formation in CEM cells, RT mutant 100-Ile; settings: Table 2B, day 4, averages of 2 to 3 independent experiments; for EC50: Human immunodeficiency virus 1, CCRF-CEM, 96 h, read-out: Antiviral Activity of Comparative Compounds EC50, 100-Ile
# Excerpt: as §1, §2
# HIV-1/Lys-138 = assay: Inhibition of HIV-1 induced syncytium formation in CEM cells, RT mutant 138-Lys; settings: Table 2B, day 4, averages of 2 to 3 independent experiments; for EC50: Human immunodeficiency virus 1, CCRF-CEM, 96 h, read-out: Antiviral Activity of Comparative Compounds EC50, 138-Lys
# Excerpt: as §1, §2
# in vitro = settings: human, cem cells, CC50 (50% cytostatic concentration), Table 2B; CEM cell proliferation; averages of 2 to 3 independent experiments
# Excerpt: as §1
# ^b 50% cytostatic concentration (i.e., compound concentration require
# to inhibit CEM cell proliferation by 50%)
# HIV-1(IIIB) = assay: Inhibition of HIV-1 induced syncytium formation in CEM cells, wild type; settings: Table 2B, WT = HIV-1(IIIB), day 4, averages of 2 to 3 independent experiments; for EC50: Human immunodeficiency virus 1, IIIB, CCRF-CEM, 96 h, read-out: Antiviral Activity of Comparative Compounds EC50, WT
# Excerpt: as §1, §2
# HIV-1/181-Cys = assay: Inhibition of HIV-1 induced syncytium formation in CEM cells, RT mutant 181-Cys; settings: Table 2B, day 4, averages of 2 to 3 independent experiments; for EC50: Human immunodeficiency virus 1, CCRF-CEM, 96 h, read-out: Antiviral Activity of Comparative Compounds EC50, 181-Cys
# Excerpt: as §1, §2
Structure (SMILES),EC50 (HIV-1/106-Ala),EC50 (HIV-1/103-Asn),EC50 (HIV-1/188-Leu),EC50 (HIV-1/100-Ile),EC50 (HIV-1/Lys-138),CC50 (in vitro),EC50 (HIV-1(IIIB)),EC50 (HIV-1/181-Cys),"Antiviral Activity of Comparative Compounds EC50, 106-Ala (HIV-1/106-Ala)","Antiviral Activity of Comparative Compounds EC50, 100-Ile (HIV-1/100-Ile)","Antiviral Activity of Comparative Compounds EC50, 138-Lys (HIV-1/Lys-138)","Antiviral Activity of Comparative Compounds EC50, WT (HIV-1(IIIB))","Antiviral Activity of Comparative Compounds EC50, 181-Cys (HIV-1/181-Cys)"
Cc1sccc1C(=S)Nc1ccc(Cl)c(OCC(=O)OC(C)(C)C)c1 [Compound 14],0.1 µg/mL,0.12 µg/mL,> 2 µg/mL,0.16 µg/mL,0.24 µg/mL,2.1 µg/mL,0.067 µg/mL,0.087 µg/mL,–,–,–,–,–
CCC1=C(C(=O)Nc2ccc(Cl)c(C=NOC(C)(C)C)c2)SCCO1 [Compound 15],0.06 µg/mL,0.065 µg/mL,> 2 µg/mL,0.06 µg/mL,0.07 µg/mL,11.4 µg/mL,0.03 µg/mL,0.09 µg/mL,–,–,–,–,–
Cc1sccc1C(=S)Nc1ccc(Cl)c(C(=O)OC(C)C)c1 [Compound 16],0.077 µg/mL,0.33 µg/mL,> 2 µg/mL,0.15 µg/mL,0.03 µg/mL,5.9 µg/mL,0.0041 µg/mL,0.1 µg/mL,–,–,–,–,–
Cc1occc1C(=S)Nc1ccc(Cl)c(SCC(=O)OC(C)(C)C)c1 [Compound 17],0.3 µg/mL,0.73 µg/mL,≥ 2 µg/mL,0.49 µg/mL,0.18 µg/mL,7 µg/mL,0.22 µg/mL,0.45 µg/mL,–,–,–,–,–
CC1=C(C(=O)Nc2ccc(Cl)c(C=NOC(C)(C)C)c2)SCCO1 [Compound 18],0.15 µg/mL,0.33 µg/mL,> 2 µg/mL,0.33 µg/mL,0.22 µg/mL,8.5 µg/mL,0.014 µg/mL,0.13 µg/mL,–,–,–,–,–
CC=CCOc1cc(NC(=S)c2ccn(C)c2C)ccc1Cl [Compound 19],0.4 µg/mL,≥ 2 µg/mL,> 2 µg/mL,0.85 µg/mL,0.6 µg/mL,5.2 µg/mL,0.17 µg/mL,0.13 µg/mL,–,–,–,–,–
Cc1sccc1C(=S)Nc1ccc(Cl)c(SCC(=O)OC(C)(C)C)c1 [Compound 20],0.15 µg/mL,0.44 µg/mL,> 2 µg/mL,0.34 µg/mL,0.43 µg/mL,5.4 µg/mL,0.13 µg/mL,0.14 µg/mL,–,–,–,–,–
Cc1sccc1C(=S)Nc1ccc(Cl)c(C(=O)OC(C(C)C)C(C)C)c1 [Compound 21],0.23 µg/mL,0.61 µg/mL,> 2 µg/mL,0.3 µg/mL,0.11 µg/mL,6 µg/mL,0.008 µg/mL,0.17 µg/mL,–,–,–,–,–
CC1=C(C(=O)Nc2ccc(Cl)c(C(=O)OC(C(C)C)C(C)C)c2)SCCO1 [Compound 22],0.26 µg/mL,0.65 µg/mL,> 2 µg/mL,0.48 µg/mL,0.55 µg/mL,5.8 µg/mL,0.08 µg/mL,0.18 µg/mL,–,–,–,–,–
Cc1sccc1C(=O)Nc1ccc(Cl)c(C(=O)OC2CCCCC2)c1 [Compound 23],–,≥ 2 µg/mL,> 2 µg/mL,–,–,5.8 µg/mL,–,–,0.22 µg/mL,0.7 µg/mL,0.73 µg/mL,0.03 µg/mL,0.27 µg/mL
CC1=C(C(=O)Nc2ccc(Cl)c(C=NOC(C)(C)C)c2)CCCO1 [Compound 24],0.5 µg/mL,0.6 µg/mL,> 2 µg/mL,0.48 µg/mL,0.5 µg/mL,9.7 µg/mL,0.13 µg/mL,0.33 µg/mL,–,–,–,–,–
C=C(Cl)COc1cc(NC(=S)c2ccsc2C)ccc1C#N [Compound 25],0.2 µg/mL,0.4 µg/mL,> 2 µg/mL,0.2 µg/mL,0.13 µg/mL,3.3 µg/mL,0.03 µg/mL,0.44 µg/mL,–,–,–,–,–
Cc1occc1C(=S)Nc1ccc(Cl)c(OC2CCCCC2)c1 [Compound 26],0.09 µg/mL,0.33 µg/mL,> 2 µg/mL,0.33 µg/mL,0.5 µg/mL,5.3 µg/mL,0.033 µg/mL,≥ 2 µg/mL,–,–,–,–,–
